According to ChEMBL document CHEMBL5465560, “Selectivity Literature for EUbOPEN Chemogenomic Library” (2024):
Each block holds one molecule with its values, some of them ahead of it.

Tests used:
[1] = test system: eIF-2-alpha kinase GCN2 (Homo sapiens), Q9P2K8 [S808G]; details: at 10 µM
[2] = target: T1, Mitogen-activated protein kinase kinase kinase 15 (Homo sapiens) (UniProt Q6ZN16); assay: Selectivity interaction (KinomeScan (DiscoverX)) EUB0001079a MAP3K15; details: at 1 µM
T1 sequence (whole entry): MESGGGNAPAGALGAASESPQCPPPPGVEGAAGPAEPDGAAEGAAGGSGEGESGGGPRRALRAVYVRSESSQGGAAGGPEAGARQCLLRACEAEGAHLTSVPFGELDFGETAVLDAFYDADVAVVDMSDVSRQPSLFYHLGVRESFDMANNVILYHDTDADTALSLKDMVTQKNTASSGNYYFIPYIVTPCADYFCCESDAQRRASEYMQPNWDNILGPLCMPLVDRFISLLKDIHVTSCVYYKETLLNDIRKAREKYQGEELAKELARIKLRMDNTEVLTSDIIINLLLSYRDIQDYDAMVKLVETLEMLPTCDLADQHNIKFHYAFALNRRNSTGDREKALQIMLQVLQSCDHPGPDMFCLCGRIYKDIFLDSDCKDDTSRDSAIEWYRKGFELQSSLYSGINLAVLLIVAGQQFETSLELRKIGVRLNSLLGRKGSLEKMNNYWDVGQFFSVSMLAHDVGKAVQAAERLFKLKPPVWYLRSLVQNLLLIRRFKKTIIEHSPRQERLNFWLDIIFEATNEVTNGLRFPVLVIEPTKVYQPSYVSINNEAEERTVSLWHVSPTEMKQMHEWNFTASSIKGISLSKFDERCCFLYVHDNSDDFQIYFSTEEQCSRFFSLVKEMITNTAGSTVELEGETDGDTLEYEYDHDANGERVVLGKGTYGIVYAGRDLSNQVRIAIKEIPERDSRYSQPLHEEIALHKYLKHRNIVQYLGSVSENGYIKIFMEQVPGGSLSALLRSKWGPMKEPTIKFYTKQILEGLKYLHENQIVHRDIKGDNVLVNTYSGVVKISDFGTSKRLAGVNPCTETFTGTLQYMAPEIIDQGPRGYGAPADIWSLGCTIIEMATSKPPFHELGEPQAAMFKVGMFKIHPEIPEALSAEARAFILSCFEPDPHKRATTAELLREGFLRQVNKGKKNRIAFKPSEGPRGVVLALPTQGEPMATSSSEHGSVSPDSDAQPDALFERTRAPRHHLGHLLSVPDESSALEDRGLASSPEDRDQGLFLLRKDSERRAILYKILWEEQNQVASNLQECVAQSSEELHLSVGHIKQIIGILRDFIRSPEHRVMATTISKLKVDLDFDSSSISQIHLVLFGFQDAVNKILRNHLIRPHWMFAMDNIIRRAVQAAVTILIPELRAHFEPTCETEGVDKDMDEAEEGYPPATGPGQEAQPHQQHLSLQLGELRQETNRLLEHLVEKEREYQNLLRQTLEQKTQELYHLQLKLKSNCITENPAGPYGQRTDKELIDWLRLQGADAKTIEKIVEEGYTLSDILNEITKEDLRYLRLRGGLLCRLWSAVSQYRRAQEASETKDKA

[3] = target: T2, Ephrin type-A receptor 1 (Homo sapiens) (UniProt P21709); assay: Selectivity interaction (KinomeScan (DiscoverX)) EUB0000618a EPHA1; details: at 10 µM
T2 sequence (whole entry): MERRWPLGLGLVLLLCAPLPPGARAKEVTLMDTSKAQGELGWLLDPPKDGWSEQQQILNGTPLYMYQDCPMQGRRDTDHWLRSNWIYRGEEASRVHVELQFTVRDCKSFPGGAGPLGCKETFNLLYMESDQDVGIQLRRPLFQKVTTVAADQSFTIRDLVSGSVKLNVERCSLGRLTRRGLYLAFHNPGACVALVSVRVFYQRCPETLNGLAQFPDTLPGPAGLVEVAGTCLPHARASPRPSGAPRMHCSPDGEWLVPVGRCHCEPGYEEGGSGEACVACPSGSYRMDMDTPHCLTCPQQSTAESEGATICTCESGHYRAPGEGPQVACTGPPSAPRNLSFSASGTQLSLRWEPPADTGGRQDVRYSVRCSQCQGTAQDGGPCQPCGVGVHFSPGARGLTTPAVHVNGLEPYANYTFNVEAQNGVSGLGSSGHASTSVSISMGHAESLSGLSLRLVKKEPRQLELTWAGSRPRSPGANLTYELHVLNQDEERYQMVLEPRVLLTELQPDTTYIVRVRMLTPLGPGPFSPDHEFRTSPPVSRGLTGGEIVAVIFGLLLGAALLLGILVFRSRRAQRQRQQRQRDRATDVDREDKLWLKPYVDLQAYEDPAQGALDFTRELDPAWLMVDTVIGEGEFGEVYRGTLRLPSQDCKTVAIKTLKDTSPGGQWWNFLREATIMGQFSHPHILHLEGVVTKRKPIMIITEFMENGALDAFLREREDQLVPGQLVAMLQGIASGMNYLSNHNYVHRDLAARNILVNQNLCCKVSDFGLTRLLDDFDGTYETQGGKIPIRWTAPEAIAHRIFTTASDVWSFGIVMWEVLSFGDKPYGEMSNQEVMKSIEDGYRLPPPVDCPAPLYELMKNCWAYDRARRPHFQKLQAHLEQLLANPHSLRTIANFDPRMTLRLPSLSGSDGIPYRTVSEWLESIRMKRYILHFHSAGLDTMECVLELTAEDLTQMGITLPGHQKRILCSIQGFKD

[4] = target: Mitogen-activated protein kinase kinase kinase 4 (Homo sapiens) (UniProt Q9Y6R4); assay: Selectivity interaction (KinomeScan (DiscoverX)) EUB0000595a MAP3K4; details: at 10 µM
Mitogen-activated protein kinase kinase kinase 4 (Homo sapiens), sequence (Q9Y6R4 whole entry): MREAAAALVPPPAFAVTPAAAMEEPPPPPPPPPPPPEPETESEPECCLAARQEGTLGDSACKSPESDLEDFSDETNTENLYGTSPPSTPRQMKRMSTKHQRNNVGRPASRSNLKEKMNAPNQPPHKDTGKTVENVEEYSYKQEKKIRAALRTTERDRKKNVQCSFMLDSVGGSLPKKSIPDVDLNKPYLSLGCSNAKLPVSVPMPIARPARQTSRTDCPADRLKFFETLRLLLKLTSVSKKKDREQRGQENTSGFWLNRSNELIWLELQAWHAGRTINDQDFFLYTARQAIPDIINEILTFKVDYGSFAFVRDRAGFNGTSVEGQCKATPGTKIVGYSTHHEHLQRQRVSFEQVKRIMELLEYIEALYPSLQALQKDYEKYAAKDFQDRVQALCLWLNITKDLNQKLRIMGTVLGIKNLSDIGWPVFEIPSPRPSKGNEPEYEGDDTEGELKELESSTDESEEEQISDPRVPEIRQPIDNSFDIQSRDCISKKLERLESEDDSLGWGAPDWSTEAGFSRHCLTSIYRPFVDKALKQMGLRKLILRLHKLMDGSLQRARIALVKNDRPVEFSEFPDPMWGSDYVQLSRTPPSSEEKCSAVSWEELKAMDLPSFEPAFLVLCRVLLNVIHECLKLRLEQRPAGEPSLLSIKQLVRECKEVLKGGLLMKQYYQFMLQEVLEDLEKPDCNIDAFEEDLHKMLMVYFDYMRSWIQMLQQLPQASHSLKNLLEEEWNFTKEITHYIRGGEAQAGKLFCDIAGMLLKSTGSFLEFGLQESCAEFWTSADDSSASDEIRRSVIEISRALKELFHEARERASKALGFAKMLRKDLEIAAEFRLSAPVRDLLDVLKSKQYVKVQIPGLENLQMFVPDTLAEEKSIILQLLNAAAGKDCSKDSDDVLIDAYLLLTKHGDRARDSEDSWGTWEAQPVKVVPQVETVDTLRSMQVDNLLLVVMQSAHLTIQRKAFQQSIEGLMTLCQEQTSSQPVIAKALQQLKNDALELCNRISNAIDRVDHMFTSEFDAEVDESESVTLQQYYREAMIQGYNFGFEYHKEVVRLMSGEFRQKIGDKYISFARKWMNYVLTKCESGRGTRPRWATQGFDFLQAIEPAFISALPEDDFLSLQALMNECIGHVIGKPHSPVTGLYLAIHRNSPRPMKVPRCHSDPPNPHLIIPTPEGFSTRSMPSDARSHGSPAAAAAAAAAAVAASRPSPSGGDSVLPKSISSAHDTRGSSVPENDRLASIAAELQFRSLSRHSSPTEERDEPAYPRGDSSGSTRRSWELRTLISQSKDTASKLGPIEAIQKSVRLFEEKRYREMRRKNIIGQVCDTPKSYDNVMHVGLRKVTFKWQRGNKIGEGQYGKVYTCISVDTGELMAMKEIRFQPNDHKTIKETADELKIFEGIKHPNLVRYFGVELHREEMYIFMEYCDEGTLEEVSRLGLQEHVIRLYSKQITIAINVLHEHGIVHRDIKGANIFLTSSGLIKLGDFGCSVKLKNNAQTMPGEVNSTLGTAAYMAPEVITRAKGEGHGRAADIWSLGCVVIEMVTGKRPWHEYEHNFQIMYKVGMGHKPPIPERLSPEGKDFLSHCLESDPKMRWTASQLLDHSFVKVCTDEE

[5] = target: Casein kinase II subunit alpha (Homo sapiens, UniProt P68400); details: at 10 µM
Casein kinase II subunit alpha, sequence (P68400 whole entry, looked up): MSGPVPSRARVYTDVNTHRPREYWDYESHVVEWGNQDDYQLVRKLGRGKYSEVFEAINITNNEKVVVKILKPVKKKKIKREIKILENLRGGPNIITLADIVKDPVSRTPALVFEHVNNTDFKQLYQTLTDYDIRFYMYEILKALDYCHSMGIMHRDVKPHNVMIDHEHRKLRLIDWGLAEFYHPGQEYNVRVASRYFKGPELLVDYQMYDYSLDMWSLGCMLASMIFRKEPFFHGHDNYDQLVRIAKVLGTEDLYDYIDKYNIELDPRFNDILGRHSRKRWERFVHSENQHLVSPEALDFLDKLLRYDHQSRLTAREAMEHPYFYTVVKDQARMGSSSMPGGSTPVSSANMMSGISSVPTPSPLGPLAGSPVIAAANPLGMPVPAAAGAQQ

eIF-2-alpha kinase GCN2 (Homo sapiens), Q9P2K8 [S808G], sequence (Q9P2K8 whole entry S808G): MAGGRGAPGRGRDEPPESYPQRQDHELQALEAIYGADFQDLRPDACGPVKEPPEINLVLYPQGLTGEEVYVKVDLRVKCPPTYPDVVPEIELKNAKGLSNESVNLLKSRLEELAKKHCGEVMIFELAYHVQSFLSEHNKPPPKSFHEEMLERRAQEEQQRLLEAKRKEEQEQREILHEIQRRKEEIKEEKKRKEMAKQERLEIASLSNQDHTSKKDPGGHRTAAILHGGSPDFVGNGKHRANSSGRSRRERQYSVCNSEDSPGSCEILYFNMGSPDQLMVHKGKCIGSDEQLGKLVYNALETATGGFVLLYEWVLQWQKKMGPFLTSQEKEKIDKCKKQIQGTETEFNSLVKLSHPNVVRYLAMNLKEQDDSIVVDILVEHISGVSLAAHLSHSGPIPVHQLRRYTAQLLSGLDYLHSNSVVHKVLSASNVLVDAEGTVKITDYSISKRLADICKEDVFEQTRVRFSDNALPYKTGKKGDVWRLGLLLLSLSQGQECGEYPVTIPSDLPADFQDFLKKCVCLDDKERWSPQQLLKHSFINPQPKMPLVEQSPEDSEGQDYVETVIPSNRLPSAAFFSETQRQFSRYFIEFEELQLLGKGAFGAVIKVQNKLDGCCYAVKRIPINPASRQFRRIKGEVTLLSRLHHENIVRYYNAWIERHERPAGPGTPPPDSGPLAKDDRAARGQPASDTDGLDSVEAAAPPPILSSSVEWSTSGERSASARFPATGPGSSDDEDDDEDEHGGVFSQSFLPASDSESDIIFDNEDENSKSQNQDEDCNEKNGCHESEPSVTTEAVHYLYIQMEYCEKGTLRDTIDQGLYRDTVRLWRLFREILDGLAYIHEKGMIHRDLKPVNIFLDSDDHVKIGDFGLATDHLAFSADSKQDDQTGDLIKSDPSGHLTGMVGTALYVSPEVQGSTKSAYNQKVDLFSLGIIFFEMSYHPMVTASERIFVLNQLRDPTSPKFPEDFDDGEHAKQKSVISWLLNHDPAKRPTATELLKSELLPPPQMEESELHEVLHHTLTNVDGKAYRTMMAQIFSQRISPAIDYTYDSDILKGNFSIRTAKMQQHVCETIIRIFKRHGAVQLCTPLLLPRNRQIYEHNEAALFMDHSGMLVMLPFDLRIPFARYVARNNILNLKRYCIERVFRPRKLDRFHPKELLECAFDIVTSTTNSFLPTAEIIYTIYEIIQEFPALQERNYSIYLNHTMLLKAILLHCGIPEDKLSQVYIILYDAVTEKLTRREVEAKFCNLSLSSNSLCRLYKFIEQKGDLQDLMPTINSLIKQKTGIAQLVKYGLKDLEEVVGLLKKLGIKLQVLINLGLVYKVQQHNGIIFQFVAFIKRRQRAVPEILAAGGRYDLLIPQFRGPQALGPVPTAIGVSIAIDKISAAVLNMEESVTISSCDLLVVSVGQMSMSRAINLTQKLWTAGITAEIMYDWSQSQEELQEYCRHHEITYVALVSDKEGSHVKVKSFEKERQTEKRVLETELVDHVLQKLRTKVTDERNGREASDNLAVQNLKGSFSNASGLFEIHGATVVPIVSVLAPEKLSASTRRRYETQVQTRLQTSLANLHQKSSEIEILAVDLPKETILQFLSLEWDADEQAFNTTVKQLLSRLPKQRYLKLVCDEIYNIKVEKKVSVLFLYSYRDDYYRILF

- % of control [1]: 100%
SMILES: CCN(CC)CCCCNc1ncc2cc(-c3cc(OC)cc(OC)c3)c(NC(=O)NC(C)(C)C)nc2n1

SMILES: Nc1cnc(N2CCc3cc(S(=O)(=O)Nc4c(F)cc(Cl)cc4F)cc(N4CCCC4=O)c32)nc1 [TP-020n]
- % of control [2]: 100%

SMILES: O[C@H]1CC[C@H](Nc2ncc3nc(Nc4c(F)cc(F)cc4F)n([C@H]4CCOC4)c3n2)CC1
- % of control [3]: 100%

SMILES: COCC(=O)NC/C=C/c1ccc2ncnc(Nc3ccc(Oc4ccc(C)nc4)c(C)c3)c2c1 [CP-724714]
- % of control [4]: 97%

SMILES: Cc1cc([C@@H](C)Nc2ccccc2C(=O)O)c2nc(N3CCOCC3)cc(=O)n2c1 [AZD-6482]
- % of control [5]: 100%
